Tests used:
[1] = tested on: NIH-3T3 cells stably expressing RIPK3-1xFv; assay: AP1-induced RIPK3 dimerization cell death, IncuCyte imaging; assay type: cell-based, murine; conditions: AP1 alone, absence of TNF; depended on AP1 concentration
Source text: Fv domains rapidly dimerize in response to AP1 treatment that facilitated an investigation of the protein-protein interactions involved in RIPK3 activation and necroptosis (27a). For example, an Fv domain was appended to a C-terminus of RIPK3, that is adjacent to the RHIM domain, in an effort to mimic in situ RHIM-dependent interactions that define RIPK3 activation. RIPK3-1xFv was expressed in NIH-3T3 cells, a cell line that lacks endogenous RIPK3 expression and is therefore unresponsive to TNF-induced necroptosis. See, FIGS. 13A and 13B. Cell death responses of NIH-3T3 cells were quantified by construct expression over time using the IncuCyte imaging system, which allows precise quantification of cell death with high temporal resolution. For example, representative images were acquired from an IncuCyte Imager (data not shown). These images were NIH-3T3 cells stably expressing RIPK3-1xFV, treated with 10 nM AP1 (see FIG. 1B for a quantified graphical representation of this cell death). One set of images show a field of these cells undergoing RIPK3-dependent cell death; the media contains the cell impermeable DNA binding dye Sytox Green, which marks cells that have lost membrane integrity in green. Another set of images depicts the same image set, following analysis by the IncuCyte software package. This software counts each green (dead) cell in each image; counted cells are surrounded by purple halos. Each trace shown in this manuscript depicts data averaged from at least 3 independently treated wells of cells, each of which is imaged in at least 4 separate fields. Each experiment shown is representative of at least 3 separate replicates. All experiments on stably transduced cells is representative of at least three separate replicates performed on each of at least two distinct, independently-derived stable lines.
In the examples below, the following compounds were used: Recombinant murine TNF (Peprotech 315-01A) was used at 1 ng/ml unless otherwise specified; AP1 (Now commercialized by Clontech as “B/B Homodimerizer,” catalog #635059) was dissolved in ethanol to a concentration of 100 μM, then diluted in culture media to a final concentration of 30 nM unless otherwise indicated. zVAD (SM 13 Biochemicals SMFMK001) was dissolved in DMSO to a concentration of 50 mM, then diluted to 50 μM in culture media; Necrostatin-1(Sigma N9037-10MG) was dissolved in DMSO to a concentration of 30 mM, then diluted to 30 μM in culture media; TNFR-Fc (Fisher 430-RI-050) was used at a final concentration of 200 ng/ml; Shield drug was a kind gift of Dr. Tom Wandless and was used at a final concentration of 1 μM. SiGenome SMARTpool siRNAs were purchased from Dharmacon/Fisher. Pools targeting murine MLKL(M-061420-01), murine RIPK1 (M-040150-01), and murine caspase-8 (M-043044-01), as well as a non-targeting “scramble” pool(D-001206-14), were used. Two microliters of a 50 μM stock of these siRNAs were delivered to cells in 6-well format using Lipofectamine siRNA-Max reagent (Life Technologies 13778150) according to the manufacturer's instructions. Forty-eight hours later, these cells were re-plated into 24-well format for cell death assays, or harvested for western blot analysis of knockdowns.
These constructs were transduced into NIH-3T3 cells using standard protocols for helper-dependent retroviral transduction. Transduced cells were selected for 5 days in 1 μg/ml puromycin, then grown to confluence and sorted twice for homogenous GFP expression. […]

[2] = compared with AP1510; cited from earlier work
[3] = molecular target: FKBPs with a single amino acid substitution, Phe36Val (Fv) (Homo sapiens, UniProt P62942, F37V); conditions: FKBP Phe36Val (Fv); cited from earlier work
cells = conditions: cited from earlier work
wild type FKBP = wild type FKBP (Homo sapiens, UniProt P62942); conditions: relative to Phe36Val FKBP; cited from earlier work
mice [4] = conditions: delivered intravenously; cited from earlier work
splenocyte proliferation = conditions: relative to rapamycin; cited from earlier work
mice [5] = conditions: mouse, in vivo; cited from earlier work
[6] = serial dilution in (aqueous) culture medium; cited from earlier work
[7] = tested on: NIH-3T3 cells stably expressing RIPK3-1xFv; assay: TNF-induced necroptosis, IncuCyte imaging; assay type: cell-based, murine; conditions: TNF plus caspase inhibitor zVAD
Experimental: Expression of RIPK3-1xFv sensitized these cells to necroptosis induced by the combination of TNF and a caspase inhibitor (zVAD) in a manner analogous to that observed in Jax cells, a murine fibroblast line that expresses endogenous RIPK3. See, FIG. 13C. […]
Resulting images were analyzed using the software package supplied with the IncuCyte imager, which allows precise analysis of the number of Sytox Green or Yoyo-3 positive cells present in each image. For each experiment, a minimum of three separate wells were treated with each experimental condition, and a minimum of 4 image fields were assessed per well. Percent cell death was calculated by treating a minimum of three distinct wells in each experiment with 100 nM of the cell permeable fluorescent dye Syto Green (S7559), which allows quantification of the total number of cells present in each field. […]

RIPK3 complexes = assay: DSS crosslinking of necrosome complexes resolved by western blotting; assay type: cell-based, murine; conditions: DSS crosslinking, western blot
Experimental: A confluent monolayer of the indicated cells was incubated with the appropriate treatment for 30 minutes at 37 degrees. Cells were lysed in a modified, Tris-free NP40 buffer (30 mM HEPES pH 7.4, 150 mM NaCl, and 1% NP40) without protease inhibitors. Protein lysate was quantified according to standard BCA assay (Pierce) and fifty micrograms of each sample was treated with 0.1 mM DSS crosslinking agent (Thermo Scientific, #21658) for 30 minutes at room temperature; the reaction was quenched by the addition of Tris-HCl pH 7.2 to a final concentration of 50 mM for 15 minutes. Crosslinked samples were analyzed by Western blot as described above, using the anti-2A primary antibody for detection.

[8] = tested on: RIPK3 necrosome complex (RIPK1, caspase-8); assay: Anti-FLAG immunoprecipitation of necrosome complexes; assay type: cell-based, murine; conditions: AP1 30 minutes
Experimental: Immunoprecipitation of necrosome complexes were carried out using rabbit anti-FLAG antibodies, and TruBlot IP reagents (Rockland Immunochemicals) to eliminate non-specific signals from immunoglobulin heavy and light chains. Briefly, cell lines were treated as indicated and lysed in NP40 buffer (30 mM Tris, 150 mM NaCl, and 1% NP40) supplemented with protease inhibitors. Twenty micrograms of each sample were reserved for “input,” while 500 μg of total protein from each sample were immunoprecipitated with 0.5 μg antibody conjugated to 30 μL TruBlot anti-Rabbit IgG beads Immunocomplexes were washed 4 times in NP40 buffer, eluted by boiling, then run on western blot. Western blots were analyzed using standard primary antibodies, but TruBlot anti-Rabbit and anti-Mouse HRP-conjugated 14 secondary antibodies were used. A standard anti-Rat-HRP secondary was used to detect caspase-8.

[9] = tested on: NIH-3T3 cells expressing RIPK3-2xFv; assay: AP1-induced RIPK3 oligomerization cell death, IncuCyte imaging; assay type: cell-based, murine; conditions: compared with RIPK3-1xFv
Source text: Consequently, two Fv domains were attached to the C-terminus of RIPK3, creating a RIPK3-2xFv construct, with the goal of promoting AP1-induced crosslinking and oligomerization independent of the RHIM domain. See, FIG. 12A. […] Compare, FIGS. 16A and 15A, respectively. […] Cells expressing this RHIM-deficient RIPK3^ΔC-2xFv construct were nonresponsive to TNF+zVAD, previously reported to be dependent on RIPK1 RHIM/RIPK3 RHIM interactions. See, FIG. 13G. […] See, FIG. 16C and FIG. 16D, respectively. […] See, FIG. 16E. […] See, FIG. 16F.
Cell death assays were carried out using a 2-color IncuCyte Zoom in-incubator imaging system (Essen Biosciences.) Briefly, this system allows fully automated imaging of cells at set intervals in phase contrast as well as both red and green fluorescent channels. Cell death assays were carried out by treating cells with death-inducing compounds in 24 well tissue culture vessels (100,000 cells/well), in the presence of 100 nM of the cell-impermeable DNA binding fluorescent dyes Sytox Green (Life Technologies 57020) or Yoyo-3 (Y3606), which are excluded from healthy cells but rapidly enter dying cells upon membrane permeabilization, in a manner analogous to propidium iodide.
Resulting images were analyzed using the software package supplied with the IncuCyte imager, which allows precise analysis of the number of Sytox Green or Yoyo-3 positive cells present in each image. For each experiment, a minimum of three separate wells were treated with each experimental condition, and a minimum of 4 image fields were assessed per well. Percent cell death was calculated by treating a minimum of three distinct wells in each experiment with 100 nM of the cell permeable fluorescent dye Syto Green (S7559), which allows quantification of the total number of cells present in each field. Dead cell events acquired via Sytox Green or Yoyo-3 staining were divided by this total cell number to yield percent cell death at each timepoint. Error bars represent standard deviation from the mean of a minimum of three independent wells. Each result depicted is representative of at least 4 distinct experiments, each of which contained at least 3 technical replicates.

Chain of FKBPs with a single amino acid substitution, Phe36Val (Fv) (P62942 whole entry F37V): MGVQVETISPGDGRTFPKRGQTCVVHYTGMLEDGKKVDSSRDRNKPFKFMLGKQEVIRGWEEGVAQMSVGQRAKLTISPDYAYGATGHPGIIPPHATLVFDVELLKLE
Chain of wild type FKBP (P62942 whole entry): as the sequence (P62942 whole entry F37V) above, with V37F counted along it

CC[C@H](C(=O)N1CCCC[C@H]1C(=O)O[C@H](CCc1ccc(OC)c(OC)c1)c1cccc(OCC(=O)NCC(CNC(=O)COc2cccc([C@@H](CCc3ccc(OC)c(OC)c3)OC(=O)[C@@H]3CCCCN3C(=O)[C@@H](CC)c3cc(OC)c(OC)c(OC)c3)c2)CN(C)C)c1)c1cc(OC)c(OC)c(OC)c1 [AP1]
RIPK3 activation and necroptosis upon AP1 addition [1]: limited RIPK3 activation and necroptosis

CC[C@H](C(=O)N1CCCC[C@H]1C(=O)O[C@H](CCc1ccc(OC)c(OC)c1)c1cccc(OCC(=O)NCC(CNC(=O)COc2cccc([C@@H](CCc3ccc(OC)c(OC)c3)OC(=O)[C@@H]3CCCCN3C(=O)[C@@H](CC)c3cc(OC)c(OC)c(OC)c3)c2)CN(C)C)c1)c1cc(OC)c(OC)c(OC)c1 [AP20187]
pharmacokinetic properties [2]: better pharmacokinetic properties than AP1510 | affinity [3]: subnanomolar | toxicity to cells (cells): non-toxic | lower affinity to the wild type protein (wild type FKBP): 1000 fold | doses with maximal effects (mice [4]): 0.5 to 10 mg/kg

AP21967
less immunosuppressive than rapamycin (splenocyte proliferation): greater than 1000 fold | non-toxic dose in mice (mice [5]): up to 30 mg/kg | non-toxic concentration to cells (cells): up to 1 μM | highest concentration ensuring complete solubility [6]: ≤ 5 µM

RIPK3-1xFv: murine RIPK3 fused to a single copy of mutated FKBP (F36V), Fv domain, at the C-terminus
sensitization to necroptosis induced by TNF and zVAD by construct expression [7]: sensitized | RIPK3 complexes formed by construct after dimerizer (AP1) treatment (RIPK3 complexes): present in a combination of dimers and larger oligomeric complexes

RIPK3-2xFv: RIPK3 with two Fv domains attached to the C-terminus
necrosome formation / interaction with RIPK1 and caspase-8 by construct [8]: interaction with RIPK1 and caspase-8, regardless of the presence of zVAD or Nec1 | RIPK3 complexes formed by construct after dimerizer (AP1) treatment (RIPK3 complexes): large molecular weight RIPK3 complexes were observed | necroptotic response to AP1 [9]: faster and more robust necroptotic response
